In PMC4287973, “Tumor cell-specific inhibition of MYC function using small molecule inhibitors of the HUWE1 ubiquitin ligase” (EMBO Molecular Medicine, 2014):

Tests used:
[1] = tested on: Ls174T cells; assay: Colony formation assay of Ls174T cells; type: cell-based; conditions: Homo sapiens, 120 h, stained after 5 days, read-out: estimated IC50 colony formation
Description: Partial shRNA-mediated depletion of HUWE1 led to a moderate, but highly significant reduction in IC50 value for growth inhibition by BI8622, arguing that growth inhibition is an on-target effect of the inhibitor (Supplementary Fig S6). […] Incubation with either compound retarded passage of Ls174T cells through all phases of the cell cycle, with the effect being strongest for G1. In contrast to colon carcinoma cells, HUWE1 is not required for proliferation of embryonic stem (ES) cells and deletion of HUWE1 instead delays the decrease of N-MYC levels that occurs upon removal of leukemia inhibitory factor (LIF) from the medium (Zhao et al, [2008]). […]
Figure 4 Effect of HUWE1 inhibition on growth and gene expression in epithelial and embryonic stem cells • Colony formation assays documenting growth of Ls174T cells in the presence of the indicated concentrations of HUWE1 inhibitors. […] A quantitation of N-MYC protein levels relative to Vinculin is shown below the blot (n = 3). • RQ–PCR assays documenting expression of MYC target gene expression in murine ES cells (F) and in crypt cultures of normal intestinal epithelial cells (G) upon inhibition of HUWE1. […]
HCT116, HEK293T, HeLa, HT29, ES, Phoenix, and U2OS cells were cultivated in DMEM (Sigma). […] Quantification of crystal violet staining was performed by extracting dye with 10% acetic acid and measuring absorbance at 590 nm. […]

[2] = biological target: T1, SMURF2 (Homo sapiens, UniProt Q9HAU4); assay: in vitro HECT-domain auto-ubiquitination assay, SMURF2; type: biochemical
T1 construct: HECT-domains of multiple ligases auto-ubiquitinate in in vitro assays containing both UBA1 and UbcH5b

[3] = biological target: T2, HECW2 (Homo sapiens, UniProt Q9P2P5); assay: in vitro HECT-domain auto-ubiquitination assay, HECW2; type: biochemical
T2 construct: HECT-domains of multiple ligases auto-ubiquitinate in in vitro assays containing both UBA1 and UbcH5b
T2 sequence (Q9P2P5 1237-1572 limits assumed, species assumed): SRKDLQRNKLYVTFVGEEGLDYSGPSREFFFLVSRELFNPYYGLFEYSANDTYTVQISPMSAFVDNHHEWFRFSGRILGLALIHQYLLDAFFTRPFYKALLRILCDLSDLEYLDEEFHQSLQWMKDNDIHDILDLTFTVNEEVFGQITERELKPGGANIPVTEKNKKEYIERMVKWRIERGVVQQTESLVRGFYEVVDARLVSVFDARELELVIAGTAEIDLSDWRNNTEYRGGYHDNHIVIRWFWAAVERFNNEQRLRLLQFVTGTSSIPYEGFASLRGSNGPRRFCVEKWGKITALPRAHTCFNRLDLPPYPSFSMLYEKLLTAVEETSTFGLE

T1 sequence (Q9HAU4 414-748 limits assumed, species assumed): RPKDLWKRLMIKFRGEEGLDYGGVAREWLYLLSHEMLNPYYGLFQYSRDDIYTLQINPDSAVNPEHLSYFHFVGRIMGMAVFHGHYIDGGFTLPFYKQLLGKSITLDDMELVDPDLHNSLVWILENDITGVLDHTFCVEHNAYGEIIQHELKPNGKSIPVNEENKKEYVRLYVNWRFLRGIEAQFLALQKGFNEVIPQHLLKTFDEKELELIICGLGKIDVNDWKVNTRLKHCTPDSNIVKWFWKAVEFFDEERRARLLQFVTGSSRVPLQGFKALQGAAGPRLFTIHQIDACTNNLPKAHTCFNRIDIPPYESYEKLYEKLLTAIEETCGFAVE

| SMILES | IC50 [1] [µM] | IC50 [2] [µM] | IC50 [3] [µM] |
| --- | --- | --- | --- |
| Cc1c(C(=O)Nc2ccc(CN)cc2)ncnc1N1CCC(C#N)(c2ccccc2)CC1 [BI8622] | 8.4 | > 50 | > 50 |
| NCc1cccc(CNc2ncnc3c(N4CCN(Cc5ccccc5)CC4)ncnc23)c1 [BI8626] | 0.7 | > 50 | > 50 |
